Assay [1] addresses Histone deacetylase (Homo sapiens) (UniProt Q13547+O15379+Q9UBN7+Q92769+Q9UQL6+Q8WUI4+Q9BY41+Q96DB2+P56524+Q9UKV0+Q969S8). To be noted: HeLa, 100 uM.
Assay [2] addresses Histone deacetylase 2 (Homo sapiens) (UniProt Q92769). To be noted: HEK293; 100 uM.
For assay [3], the target named is Histone deacetylase 3 (Homo sapiens) (UniProt O15379). The settings on record: HEK293; 100 uM.
The target in assay [4] is T1, Histone deacetylase 7 (Homo sapiens) (UniProt Q8WUI4).
T1 sequence (whole entry): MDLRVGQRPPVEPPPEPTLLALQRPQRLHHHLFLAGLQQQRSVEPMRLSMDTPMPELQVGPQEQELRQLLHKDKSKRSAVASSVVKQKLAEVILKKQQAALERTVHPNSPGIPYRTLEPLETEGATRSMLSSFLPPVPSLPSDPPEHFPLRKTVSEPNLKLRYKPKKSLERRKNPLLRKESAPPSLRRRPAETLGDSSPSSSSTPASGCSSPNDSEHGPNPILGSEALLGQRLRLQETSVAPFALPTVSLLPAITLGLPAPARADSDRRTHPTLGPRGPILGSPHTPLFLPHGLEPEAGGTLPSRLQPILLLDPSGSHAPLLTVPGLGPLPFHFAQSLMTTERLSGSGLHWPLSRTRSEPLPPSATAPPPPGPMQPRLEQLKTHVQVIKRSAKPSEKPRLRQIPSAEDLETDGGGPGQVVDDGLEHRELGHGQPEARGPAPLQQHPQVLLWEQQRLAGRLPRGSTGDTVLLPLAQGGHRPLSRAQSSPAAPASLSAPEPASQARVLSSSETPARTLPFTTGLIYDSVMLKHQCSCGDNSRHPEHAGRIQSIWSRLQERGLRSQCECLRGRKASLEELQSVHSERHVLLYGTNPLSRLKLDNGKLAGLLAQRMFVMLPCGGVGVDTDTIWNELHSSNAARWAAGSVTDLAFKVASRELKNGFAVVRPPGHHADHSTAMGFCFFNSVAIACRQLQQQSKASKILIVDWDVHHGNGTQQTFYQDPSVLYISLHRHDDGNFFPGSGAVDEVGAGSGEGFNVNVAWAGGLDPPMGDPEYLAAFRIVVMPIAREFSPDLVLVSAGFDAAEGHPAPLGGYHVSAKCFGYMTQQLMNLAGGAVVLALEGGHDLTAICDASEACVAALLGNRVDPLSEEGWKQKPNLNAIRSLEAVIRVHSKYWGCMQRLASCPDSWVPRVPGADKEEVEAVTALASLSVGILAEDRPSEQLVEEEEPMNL
To be noted: 100 uM.

In assay [5] the target is Histone deacetylase 4 (Homo sapiens) (UniProt P56524). The settings on record: 50 uM.
Assay [6] deals with Histone deacetylase 1 (Homo sapiens) (UniProt Q13547). The settings on record: HEK293; 50 uM.
Assay [7] concerns the target Histone deacetylase 2 (Homo sapiens) (UniProt Q92769). The settings on record: HEK293; 50 uM.
Assay [8] has as its target Histone deacetylase 3 (Homo sapiens) (UniProt O15379). To be noted: HEK293; 50 uM.
Assay [9] deals with Histone deacetylase 4 (Homo sapiens) (UniProt P56524). To be noted: 100 uM.

Sequence of Histone deacetylase 3 (Homo sapiens) (O15379 whole entry): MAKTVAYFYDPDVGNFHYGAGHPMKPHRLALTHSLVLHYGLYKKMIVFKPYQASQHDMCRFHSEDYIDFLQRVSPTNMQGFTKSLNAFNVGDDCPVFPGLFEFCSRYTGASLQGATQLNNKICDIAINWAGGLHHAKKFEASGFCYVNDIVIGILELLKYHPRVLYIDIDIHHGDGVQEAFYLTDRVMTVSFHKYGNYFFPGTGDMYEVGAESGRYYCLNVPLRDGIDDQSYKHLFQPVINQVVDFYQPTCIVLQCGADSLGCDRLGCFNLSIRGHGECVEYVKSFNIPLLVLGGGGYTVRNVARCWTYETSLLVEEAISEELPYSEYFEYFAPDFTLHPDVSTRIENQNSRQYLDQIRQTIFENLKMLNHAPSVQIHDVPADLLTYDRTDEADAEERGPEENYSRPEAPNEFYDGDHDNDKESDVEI
Sequence of Histone deacetylase 4 (Homo sapiens) (P56524 whole entry): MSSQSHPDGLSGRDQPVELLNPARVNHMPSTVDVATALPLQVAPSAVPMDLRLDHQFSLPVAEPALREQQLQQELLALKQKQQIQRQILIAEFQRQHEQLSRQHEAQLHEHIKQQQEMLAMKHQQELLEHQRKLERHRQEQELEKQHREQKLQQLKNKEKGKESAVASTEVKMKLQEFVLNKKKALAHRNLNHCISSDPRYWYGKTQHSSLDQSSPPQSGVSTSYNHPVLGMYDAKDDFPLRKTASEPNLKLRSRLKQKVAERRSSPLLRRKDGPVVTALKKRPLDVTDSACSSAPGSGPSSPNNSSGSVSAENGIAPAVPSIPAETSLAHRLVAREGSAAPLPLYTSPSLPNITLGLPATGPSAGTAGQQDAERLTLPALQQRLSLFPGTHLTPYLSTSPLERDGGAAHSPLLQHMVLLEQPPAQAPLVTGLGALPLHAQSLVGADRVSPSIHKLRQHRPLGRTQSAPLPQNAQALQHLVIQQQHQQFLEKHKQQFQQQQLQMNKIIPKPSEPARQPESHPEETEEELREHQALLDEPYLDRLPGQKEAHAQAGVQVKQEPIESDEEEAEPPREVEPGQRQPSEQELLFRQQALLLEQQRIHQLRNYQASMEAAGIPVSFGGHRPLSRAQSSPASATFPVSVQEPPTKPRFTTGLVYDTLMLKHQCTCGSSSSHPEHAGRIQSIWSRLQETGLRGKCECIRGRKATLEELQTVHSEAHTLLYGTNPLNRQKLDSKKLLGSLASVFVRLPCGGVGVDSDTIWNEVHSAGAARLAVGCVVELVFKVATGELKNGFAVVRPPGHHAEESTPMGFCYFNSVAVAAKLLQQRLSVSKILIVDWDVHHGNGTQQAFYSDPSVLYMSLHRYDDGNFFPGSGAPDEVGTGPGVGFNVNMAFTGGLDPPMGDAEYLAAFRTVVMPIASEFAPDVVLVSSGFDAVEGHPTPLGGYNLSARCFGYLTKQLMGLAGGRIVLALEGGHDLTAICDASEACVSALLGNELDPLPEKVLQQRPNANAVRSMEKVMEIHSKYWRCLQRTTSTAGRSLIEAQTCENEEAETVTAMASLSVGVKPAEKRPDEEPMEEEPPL
Sequence of Histone deacetylase 2 (Homo sapiens) (Q92769 whole entry): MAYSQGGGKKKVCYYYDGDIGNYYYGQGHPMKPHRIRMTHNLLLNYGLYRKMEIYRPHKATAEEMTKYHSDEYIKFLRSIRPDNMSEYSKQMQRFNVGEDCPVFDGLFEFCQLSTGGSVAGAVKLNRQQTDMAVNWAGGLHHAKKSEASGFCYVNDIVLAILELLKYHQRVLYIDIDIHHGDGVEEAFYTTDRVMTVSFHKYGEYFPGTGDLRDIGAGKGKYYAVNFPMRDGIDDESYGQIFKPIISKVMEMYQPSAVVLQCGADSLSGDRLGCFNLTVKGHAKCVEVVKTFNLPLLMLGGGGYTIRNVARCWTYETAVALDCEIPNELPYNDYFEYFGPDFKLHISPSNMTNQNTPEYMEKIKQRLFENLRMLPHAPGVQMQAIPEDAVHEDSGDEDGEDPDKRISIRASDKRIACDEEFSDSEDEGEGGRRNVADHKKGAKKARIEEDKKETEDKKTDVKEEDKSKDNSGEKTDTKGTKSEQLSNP
Sequence of Histone deacetylase 1 (Homo sapiens) (Q13547 whole entry): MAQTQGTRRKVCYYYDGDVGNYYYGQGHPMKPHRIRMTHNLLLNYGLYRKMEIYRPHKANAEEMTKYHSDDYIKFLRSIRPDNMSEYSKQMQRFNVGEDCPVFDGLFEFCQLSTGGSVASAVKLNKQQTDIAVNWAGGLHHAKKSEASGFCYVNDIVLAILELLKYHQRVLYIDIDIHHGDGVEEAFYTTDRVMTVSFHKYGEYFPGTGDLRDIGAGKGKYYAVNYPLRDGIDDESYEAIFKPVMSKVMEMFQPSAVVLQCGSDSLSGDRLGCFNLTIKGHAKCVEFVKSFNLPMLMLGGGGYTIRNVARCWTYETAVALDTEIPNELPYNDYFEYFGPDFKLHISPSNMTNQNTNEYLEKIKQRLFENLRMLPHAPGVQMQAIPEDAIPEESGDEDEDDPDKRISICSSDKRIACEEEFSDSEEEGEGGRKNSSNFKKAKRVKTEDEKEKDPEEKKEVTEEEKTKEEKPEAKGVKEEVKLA

In turn, `O=C(O)CC/C=C\C[C@@H]1NC(=O)[C@H](Cc2c[nH]c3ccccc23)NC(=O)[C@H]2CCCN2C(=O)[C@H](Cc2c[nH]c3ccccc23)NC1=O` displayed an inhibition in assay [1] of 30%. With `O=C(CCCCC[C@@H]1NC(=O)[C@H](Cc2c[nH]c3ccccc23)NC(=O)[C@H]2CCCN2C(=O)[C@H](Cc2c[nH]c3ccccc23)NC1=O)NO`, the inhibition in assay [2] came to 34%; in assay [3], 23.5%; in assay [4] it was 48.5%. In turn, `O=C(O)CC/C=C\C[C@@H]1NC(=O)[C@H]2CCCN2C(=O)[C@H](Cc2ccccc2)NC(=O)[C@H](Cc2c[nH]c3ccccc23)NC1=O` gave an inhibition in assay [5] of 37%. For `O=C(CCCCC[C@@H]1NC(=O)[C@H]2CCCN2C(=O)[C@H](Cc2ccccc2)NC(=O)[C@H](Cc2c[nH]c3ccccc23)NC1=O)NO`, the inhibition in assay [6] is 42%; in assay [7], 30%; in [8], 14.7%.

In the case of `C[C@H](O)C(=O)CCCCC[C@@H]1NC(=O)[C@H]2CCCN2C(=O)[C@H](Cc2ccccc2)NC(=O)[C@H](Cc2c[nH]c3ccccc23)NC1=O`, the inhibition in assay [9] worked out at 50%.

(Values after ChEMBL document CHEMBL1158553, “Synthesis and biological activity of cyclotetrapeptide analogues of the natural HDAC inhibitor FR235222” (Bioorg Med Chem, 2010).)
